Results taken from patent US10681908B2, “Molecules having pesticidal utility, and intermediates, compositions, and processes, related thereto” (Dow AgroSciences LLC, priority 2016, dated 2020).

Legend:
Assay type in all cases: in vivo
[1] = system: Green Peach Aphid (Myzus persicae, MYZUPE); test: Bioassay on Green Peach Aphid (GPA), foliar spray on infested cabbage seedlings; settings: 72 h, 200 ppm foliar spray, three days, Abbott corrected % control, read-out: GPA % Control (or Mortality) rating
Procedure: Example B: Bioassays on Green Peach Aphid (Myzus Persicae, MYZUPE) (“GPA”)
Certain molecules disclosed in this document were tested against GPA using procedures described in the following example. In the reporting of the results, the “GPA & YFM Rating Table” was used (See Table Section).
Cabbage seedlings grown in 3-inch pots, with 2-3 small (3-5 cm) true leaves, were used as test substrate. The seedlings were infested with 20-50 GPA (wingless adult and nymph stages) one day prior to chemical application. Four pots with individual seedlings were used for each treatment. Test molecules (2 mg) were dissolved in 2 mL of acetone/methanol (1:1) solvent, forming stock solutions of 1000 ppm test molecule. The stock solutions were diluted 5× with 0.025% Tween 20 in water to obtain the solution at 200 ppm test molecule. A hand-held aspirator-type sprayer was used for spraying a solution to both sides of […] leaves until runoff. Reference plants (solvent check) were sprayed with the diluent only containing 20% by volume of acetone/methanol (1:1) solvent. Treated plants were held in a holding room for three days at approximately 25° C. and ambient relative humidity (RH) prior to grading. Evaluation was conducted by counting the number of live aphids per plant under a microscope. Percent Control was measured by using Abbott's correction formula (W. S. Abbott, “A Method of Computing the Effectiveness of an Insecticide” J. Econ. Entomol. 18 (1925), pp. 265-267) as follows. Corrected % Control=100*(X−Y)/X • where • X=No. of live aphids on solvent check plants and • Y=No. of live aphids on treated plants

[2] = system: Cabbage Looper (Trichoplusia ni, TRIPNI); test: Bioassay on Cabbage Looper (CL), 128-well diet tray assay; settings: 168 h, 50 μg/cm^2 on artificial diet, second instar larvae, five to seven days, 25° C., read-out: CL % Control (or Mortality) rating
Summary of the method: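 Percent mortality, averaged over eight wells, scored after five to seven days at 25° C. under 14:10 light-dark. Each well held 1–5 second-instar larvae on artificial diet treated with 50 μg/cm^2 test molecule applied in 90:10 acetone-water and dried.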

[3] = system: Beet Armyworm (Spodoptera exigua, LAPHEG); test: Bioassay on Beet Armyworm (BAW), 128-well diet tray assay; settings: 168 h, 50 μg/cm^2 on artificial diet, second instar larvae, five to seven days, 25° C., read-out: BAW % Control (or Mortality) rating
Summary of the method: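 Mortality of second-instar larvae (one to five per well) was scored after five to seven days at 25 °C under 14:10 light-dark and averaged across eight wells. Each well's diet had received 50 μg/cm^2 test molecule from a 90:10 acetone-water solution, allowed to dry before infestation.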

[4] = system: Yellow Fever Mosquito (Aedes aegypti, AEDSAE); settings: about 1 day-old larvae, 3 days, room temperature, scored on mortality
Summary of the method: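 Compounds from DMSO master plates (4000 ppm stock) diluted with 90:10 water:acetone, then about 1-day-old larvae in liver-powder water added. Held covered at room temperature for 3 days; each well scored for mortality.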

| SMILES | mortality at 200 ppm [1] [%] | mortality at 50 µg/cm2 [2] [%] | mortality at 50 µg/cm2 [3] [%] | YFM % Control (or Mortality) rating [4] |
| --- | --- | --- | --- | --- |
| C[C@H](C[S+]([O-])CC(F)(F)F)NC(=O)c1ccc(/C(F)=C/C(c2cc(Cl)cc(Br)c2)C(F)(F)F)cc1C(F)(F)F (stereo partly drawn) [F68, 4-((Z)-3-(3-Bromo-5-chlorophenyl)-1,4,4,4-tetrafluorobut-1-en-1-yl)-N-((2R)-1-((2,2,2-trifluoroethyl)sulfinyl)propan-2-yl)-2-(trifluoromethyl)benzamide] | 0 to 80 | 50 to 100 | 50 to 100 | A (80-100) |
| C[C@H](CS(=O)(=O)CC(F)(F)F)NC(=O)c1ccc(/C(F)=C/C(c2cc(Br)cc(Br)c2)C(F)(F)F)cc1C(F)(F)F (stereo partly drawn) [F69, 4-((Z)-3-(3,5-Dibromophenyl)-1,4,4,4-tetrafluorobut-1-en-1-yl)-N—((R)-1-((2,2,2-trifluoroethyl)sulfonyl)propan-2-yl)-2-(trifluoromethyl)benzamide] | 0 to 80 | 50 to 100 | 50 to 100 | A (80-100) |
| C[C@H](CS(=O)(=O)CC(F)(F)F)NC(=O)c1ccc(/C(F)=C/C(c2cc(Cl)c(C(F)F)c(Cl)c2)C(F)(F)F)cc1C(F)(F)F (stereo partly drawn) [F104] | 0 | 50 to 100 | 50 to 100 | A (80-100) |
| C[C@H](C[S+]([O-])CCC#N)NC(=O)c1ccc(/C(F)=C/C(c2cc(Cl)c(Cl)c(Cl)c2)C(F)(F)F)cc1C(F)(F)F (stereo partly drawn) [F122, N-((2R)-1-((2-Cyanoethyl)sulfinyl)propan-2-yl)-4-((Z)-1,4,4,4-tetrafluoro-3-(3,4,5-trichlorophenyl)but-1-en-1-yl)-2-(trifluoromethyl)benzamide] | 0 to 80 | 50 to 100 | 50 to 100 | A (80-100) |
| C[C@H](CS(=O)(=O)CCC#N)NC(=O)c1ccc(/C(F)=C/C(c2cc(Cl)c(Cl)c(Cl)c2)C(F)(F)F)cc1C(F)(F)F (stereo partly drawn) [F123, N—((R)-1-((2-cyanoethyl)sulfonyl)propan-2-yl)-4-((Z)-1,4,4,4-tetrafluoro-3-(3,4,5-trichlorophenyl)but-1-en-1-yl)-2-(trifluoromethyl)benzamide] | 0 | 50 to 100 | 50 to 100 | A (80-100) |
| C[C@H](CS(=O)(=O)CC(F)(F)F)NC(=O)c1ccc(/C(F)=C/C(c2ccc(F)c(Cl)c2)C(F)(F)F)cc1C(F)(F)F (stereo partly drawn) [PF2, 4-((Z)-3-(3-Chloro-4-fluorophenyl)-1,4,4,4-tetrafluorobut-1-en-1-yl)-N—((R)-1-((2,2,2-trifluoroethyl)sulfonyl)propan-2-yl)-2-(trifluoromethyl)benzamide] | 0 to 80 | 50 to 100 | 50 to 100 | B (More than 0-Less than 80) |
